In patent EP4806909A1, “GLP-1 COMPOUND, AND PREPARATION METHOD THEREFOR AND USE THEREOF” (Shenzhen Salubris Pharmaceuticals Co., Ltd., priority 2023, dated 2025):

How the values were obtained:
GLP-1 receptor = molecular target: T1, GLP-1 receptor (Homo sapiens, UniProt P43220); assay: GLP-1 activity assay (cAMP HTRF); assay type: cell-based; conditions: U20S-GLP-1R stable transfected cell line, 30 minutes at 37°C
T1 construct: expressed in transfected cells
Method: The agonistic effect of the test substance on the GLP-1 receptor was determined using a U20S-GLP-1R stable transfected cell line and a HTRF detection method.
• 1. According to the experimental procedure of the cAMP-Gs Dynamic HTRF kit, the 5x Stimulation buffer (SB) provided in the kit was diluted to 1xSB with ddH2O. IBMX was added to the 1xSB solution to a final concentration of 500 µM to prevent degradation of cAMP. Then, a working solution of the test substance was prepared using 1xSB and subjected to a series of gradient dilutions. • 2. U2OS-GLP-1R cells were digested and collected. After resuspending and counting, the cell density was diluted to 2x10^6 cells/mL using 1xSB solution. Then, 5 µL per well was seeded into a 384-well cell culture plate, resulting in 10,000 cells per well. • 3. The test substances were added at different concentrations into the corresponding cell wells at 5 µL per well, and incubated in a 37°C incubator for 30 minutes. • 4. According to the steps provided by the cAMP-Gs Dynamic HTRF kit, cAMP standard solutions of different concentrations were prepared and added into the 384-well plate. • 5. The cAMP d2 reagent and Eu Cryptate antibody provided in the kit were diluted to 1x using Lysis & Detection Buffer. Then, d2 and Eu solutions were added to the 384-well plate, 5 µL each well. After incubation at room temperature for 2 hours, the plate was read using the HTRF module (665/620 nm) of a microplate reader, and experimental data was collected. • 6. A curve was plotted using the signal value versus the compound concentration. Curve fitting and EC50 calculation were performed using nonlinear regression of GraphPad Prism software. […] Table 2: GLP-1 Activity of the compounds

[1] = Pharmacokinetic experiment in rats; assay type: in vivo; conditions: rat, plasma; SD rats, male, intravenous, 0.2 mg/kg, sampling to 72 hours
Method: Dulbecco's phosphate buffered saline (DPBS) (Batch No.: F2326001, Shanghai Aladdin Biochemical Technology Co., Ltd.). LC-MS instrument (Thermo TSQ Altis Plus).
SD rats: Male, 180-250g, purchased from Guangdong Vital River Laboratory Animal Technology Co., Ltd.
The test sample powder was accurately weighed and completely dissolved in Dulbecco's phosphate buffered saline free of Ca^2+/Mg^2+, mixed well to obtain a 0.1 mg/mL solution, and administered intravenously at a dose of 2 mL/kg.
After intravenous administration to the rats, approximately 200 µL of venous blood was collected into EDTA-K2 anticoagulant-coated EP tubes pre-dose and post-dose at 0, 0.5, 2, 5, 24, 48, and 72 hours . The blood was centrifuged at 12,000 rpm for 2 minutes. The plasma was collected and stored frozen at -20°C until analysis.
A certain amount of the test sample was accurately weighed and dissolved in DMSO to prepare a 2 mg/mL stock solution. An appropriate amount of the compound stock solution was accurately pipetted and diluted with an acetonitrile-aqueous solution (ACN:H2O=1:1) to prepare a series of standard solutions. […]
After determining the plasma drug concentration by LC-MS, the pharmacokinetic parameters in rats post-administration were calculated using a non-compartmental model with WinNonlin 6.1 software.

T1 sequence (P43220 24-463, species assumed): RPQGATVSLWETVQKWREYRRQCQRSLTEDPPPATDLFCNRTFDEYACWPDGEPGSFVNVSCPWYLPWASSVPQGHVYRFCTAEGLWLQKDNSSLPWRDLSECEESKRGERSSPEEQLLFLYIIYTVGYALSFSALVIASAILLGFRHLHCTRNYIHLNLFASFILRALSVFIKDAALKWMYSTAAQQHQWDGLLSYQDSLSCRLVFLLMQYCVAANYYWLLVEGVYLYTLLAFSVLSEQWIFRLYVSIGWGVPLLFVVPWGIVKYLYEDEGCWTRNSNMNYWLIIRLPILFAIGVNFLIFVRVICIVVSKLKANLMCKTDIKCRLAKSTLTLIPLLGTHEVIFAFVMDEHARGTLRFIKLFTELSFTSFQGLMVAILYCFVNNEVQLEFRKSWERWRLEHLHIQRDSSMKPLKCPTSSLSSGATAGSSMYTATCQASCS

EC50 (GLP-1 receptor) [nM]	AUC(0-t) [1] [µg·h/mL]	SMILES
9.3	101	CC[C@H](C)[C@H](NC(=O)[C@H](Cc1ccccc1)NC(=O)[C@H](CCC(=O)O)NC(=O)[C@H](CCCCNC(=O)COCCOCCNC(=O)COCCOCCNC(=O)CC[C@H](NC(=O)CCCCCCCCCCCCCCCCC(=O)O)C(=O)O)NC(=O)[C@H](C)NC(=O)[C@H](C)NC(=O)[C@H](CCC(N)=O)NC(=O)CNC(=O)[C@H](CCC(=O)O)NC(=O)[C@H](CC(C)C)NC(=O)[C@H](Cc1ccc(O)cc1)NC(=O)[C@H](CO)NC(=O)[C@H](CO)NC(=O)[C@@H](NC(=O)[C@H](CC(=O)O)NC(=O)[C@H](CO)NC(=O)[C@@H](NC(=O)[C@H](Cc1ccccc1)NC(=O)[C@@H](NC(=O)CNC(=O)[C@H](CCC(=O)O)NC(=O)C(C)(C)NC(=O)[C@H](Cc1c[nH]cn1)NC(=O)CN(CCNC(=O)C[C@H](NC(=O)CCCCCCCCCCCCCCC(=O)O)C(=O)O)C(=O)CN)[C@@H](C)O)[C@@H](C)O)C(C)C)C(=O)N[C@@H](C)C(=O)N[C@@H](Cc1c[nH]c2ccccc12)C(=O)N[C@@H](CC(C)C)C(=O)N[C@H](C(=O)N[C@@H](CCCNC(=N)N)C(=O)NCC(=O)N[C@@H](CCCNC(=N)N)C(=O)NCC(=O)O)C(C)C [Example 2]
15.7	–	CC[C@H](C)[C@H](NC(=O)[C@H](Cc1ccccc1)NC(=O)[C@H](CCC(=O)O)NC(=O)[C@H](CCCCNC(=O)COCCOCCNC(=O)COCCOCCNC(=O)CC[C@H](NC(=O)CCCCCCCCCCCCCCCCC(=O)O)C(=O)O)NC(=O)[C@H](C)NC(=O)[C@H](C)NC(=O)[C@H](CCC(N)=O)NC(=O)CNC(=O)[C@H](CCC(=O)O)NC(=O)[C@H](CC(C)C)NC(=O)[C@H](Cc1ccc(O)cc1)NC(=O)[C@H](CO)NC(=O)[C@H](CO)NC(=O)[C@@H](NC(=O)[C@H](CC(=O)O)NC(=O)[C@H](CO)NC(=O)[C@@H](NC(=O)[C@H](Cc1ccccc1)NC(=O)[C@@H](NC(=O)CNC(=O)[C@H](CCC(=O)O)NC(=O)C(C)(C)NC(=O)[C@H](Cc1c[nH]cn1)NC(=O)CN(CCOCCOCCNC(=O)CC[C@H](NC(=O)CCCCCCCCCCCCCCC(=O)O)C(=O)O)C(=O)CN)[C@@H](C)O)[C@@H](C)O)C(C)C)C(=O)N[C@@H](C)C(=O)N[C@@H](Cc1c[nH]c2ccccc12)C(=O)N[C@@H](CC(C)C)C(=O)N[C@H](C(=O)N[C@@H](CCCNC(=N)N)C(=O)NCC(=O)N[C@@H](CCCNC(=N)N)C(=O)NCC(=O)O)C(C)C [Example 3]
16.9	–	CC[C@H](C)[C@H](NC(=O)[C@H](Cc1ccccc1)NC(=O)[C@H](CCC(=O)O)NC(=O)[C@H](CCCCNC(=O)COCCOCCNC(=O)COCCOCCNC(=O)CC[C@H](NC(=O)CCCCCCCCCCCCCCCCC(=O)O)C(=O)O)NC(=O)[C@H](C)NC(=O)[C@H](C)NC(=O)[C@H](CCC(N)=O)NC(=O)CNC(=O)[C@H](CCC(=O)O)NC(=O)[C@H](CC(C)C)NC(=O)[C@H](Cc1ccc(O)cc1)NC(=O)[C@H](CO)NC(=O)[C@H](CO)NC(=O)[C@@H](NC(=O)[C@H](CC(=O)O)NC(=O)[C@H](CO)NC(=O)[C@@H](NC(=O)[C@H](Cc1ccccc1)NC(=O)[C@@H](NC(=O)CNC(=O)[C@H](CCC(=O)O)NC(=O)C(C)(C)NC(=O)[C@H](Cc1c[nH]cn1)NC(=O)CN(CCOCCOCCNC(=O)C[C@H](NC(=O)CCCCCCCCCCCCCCC(=O)O)C(=O)O)C(=O)CN)[C@@H](C)O)[C@@H](C)O)C(C)C)C(=O)N[C@@H](C)C(=O)N[C@@H](Cc1c[nH]c2ccccc12)C(=O)N[C@@H](CC(C)C)C(=O)N[C@H](C(=O)N[C@@H](CCCNC(=N)N)C(=O)NCC(=O)N[C@@H](CCCNC(=N)N)C(=O)NCC(=O)O)C(C)C [Example 4]
5.7	99.3	CC[C@H](C)[C@H](NC(=O)[C@H](Cc1ccccc1)NC(=O)[C@H](CCC(=O)O)NC(=O)[C@H](CCCCNC(=O)COCCOCCNC(=O)COCCOCCNC(=O)CC[C@H](NC(=O)CCCCCCCCCCCCCCCCC(=O)O)C(=O)O)NC(=O)[C@H](C)NC(=O)[C@H](C)NC(=O)[C@H](CCC(N)=O)NC(=O)CNC(=O)[C@H](CCC(=O)O)NC(=O)[C@H](CC(C)C)NC(=O)[C@H](Cc1ccc(O)cc1)NC(=O)[C@H](CO)NC(=O)[C@H](CO)NC(=O)[C@@H](NC(=O)[C@H](CC(=O)O)NC(=O)[C@H](CO)NC(=O)[C@@H](NC(=O)[C@H](Cc1ccccc1)NC(=O)[C@@H](NC(=O)CNC(=O)[C@H](CCC(=O)O)NC(=O)C(C)(C)NC(=O)[C@H](Cc1c[nH]cn1)NC(=O)CN(CCNC(=O)CC[C@H](NC(=O)CCCCCCCCCCCCCCC(=O)O)C(=O)O)C(=O)[C@@H]1CCCN1)[C@@H](C)O)[C@@H](C)O)C(C)C)C(=O)N[C@@H](C)C(=O)N[C@@H](Cc1c[nH]c2ccccc12)C(=O)N[C@@H](CC(C)C)C(=O)N[C@H](C(=O)N[C@@H](CCCNC(=N)N)C(=O)NCC(=O)N[C@@H](CCCNC(=N)N)C(=O)NCC(=O)O)C(C)C [Example 17]
